Results published in US20230125698A1, “APHERESIS COLUMN FOR TREATING RHEUMATOID ARTHRITIS” (UNIVERSITÉ PAUL SABATIER TOULOUSE III, priority 2020, published 2023).
Non-standard residues stand in square brackets, D forms with d. No end group written: not given here. Cit = NC(=O)NCCC[C@H](N)C(=O)O

Key:
[1] = test system: anti-citrullinated peptide/protein antibodies (ACPA) in serums from AhFibA-positive rheumatoid arthritis patients; test: ELISA reactivity of rheumatoid arthritis patient serums with respect to the citrullinated peptides; format: binding, human; conditions: β60-74Cit-NH2 and/or Ac-α36-50Cit
[2] = test system: anti-citrullinated peptide/protein antibodies (ACPA) in serums from AhFibA-positive rheumatoid arthritis patients; test: as above; format: binding, human; parameters: key to Reactivity profile of serum with respect to the peptide: +++: strong positive; ++: medium positive; +: weak positive; empty box: negative; conditions: for Correlation between the reactivities of the serums with respect to the different peptides (Spearman): 202 serums, peptide pairs compared; for Reactivity profile of serum with respect to the peptide: ELISA
Method: Serum samples were obtained from 202 rheumatoid arthritis patients positive for the “AhFibA” ELISA test, which allows to detect and titer the ACPA using the citrullinated human fibrinogen as an immunosorbent.
The antigens or immunosorbents (citrullinated fibrinogen or citrullinated and non-citrullinated peptides), solubilised in PBS (1.5 mM KH2PO4 SIGMA 795488; 7 mM K2HPO4 SIGMA P3786; 0.15M NaCl SIGMA 31434; pH 7.2) at concentrations of 5 and 10 μg/mL, are adsorbed in the microtiter plate wells (MAXISORP NUNC 2023-09) by incubation overnight at 4° C., or used in avidin-biotin system: avidin 5 μg/mL in PBS incubated overnight at 4° C. and then, after washing, biotinylated peptide at 10 μg/mL in PBS, incubated 1 h at 4° C. After blocking in PBS 2% BSA (Sigma A3059) for 1 hour at 4° C. and washing in PBS 0.1% Tween®20 (SIGMA P1379), the samples to be tested are deposited diluted 1:50 (1:100 in the Avidin-Biotin system) or at equivalent corrected dilutions, in PBS 2% BSA 2MNaCl. After washing, the secondary antibody (goat anti-human IgG Fc fragment coupled to horseradish peroxidase; Southern Biotech 2040-05) is incubated for 1 hour at 4° C. After washing, the revelation is performed with a solution of Ortho-Phenylene Diamine dihydrochloride (Sigma P2788), 0.03% H2O2 (Sigma H1009), in citrate/H3PO4 buffer pH5 (0.05 M citric acid Sigma C0759; 0.1 M Na2HPO4 Prolabo 28026292) for 5 minutes at room temperature, and then stopped with a solution of H2SO4 6N (Sigma 07208). The optical density (OD) is read at 492 nm with a Multiskan Fc plate reader (ThermoScientific).
Expression of the results of the ELISA tests: for the peptides, the variation in OD between the reactivity of the citrullinated peptide and the reactivity of the non-citrullinated peptide is taken into account, each reactivity being previously subtracted from its blank (OD in the absence of sample). This gives the following formula:
ΔDO=(DOcit−DOblank cit)−(DOnoncit−DOblank noncit) [Math 1]
The ΔDO for the peptides and the OD for the citrullinated fibrinogen are considered to express the titer of the samples tested.
The inter-assay variations are corrected for by using a range of dilutions of a pool of patient serums tested in each microtiter plate. This reference pool, named P97, was made up of 97 samples of the same volume from 97 patients with a high ACPA titer. The OD values of this internal range are compared to that of reference values where each point in the range is the average of 30 determinations previously performed from this same pool. The least squares method then allows to obtain a correction factor which is applied to all the OD values obtained on the corresponding plate. This corrected OD corresponds to the titer of the sample.
The reactivity profiles of the 202 samples of patient serums with respect to the citrullinated fibrinogen and the 4 citrullinated peptides were determined by ELISA in at least two independent assays, each being done in duplicate. For the sake of reproducibility, only the microtiter plates whose internal range required the application of a correction factor between 0.5 and 2 with respect to the reference range were considered.

[3] = serum n°1, ACPA-positive RA patient serum
[4] = serum n°6, ACPA-positive RA patient serum
[5] = serum n°10, ACPA-positive RA patient serum
[6] = serum n°16, ACPA-positive RA patient serum
[7] = serum n°17, ACPA-positive RA patient serum
[8] = serum n°22, ACPA-positive RA patient serum
[9] = serum n°25, ACPA-positive RA patient serum
[10] = serum n°29, ACPA-positive RA patient serum
[11] = serum n°41, ACPA-positive RA patient serum
[12] = serum n°64, ACPA-positive RA patient serum

Substance | Reactivity of the plasmas tested to the peptide [1] | Correlation between the reactivities of the serums with respect to the different peptides (Spearman) [2] | Reactivity profile of serum with respect to the peptide [2, 3] | Reactivity profile of serum with respect to the peptide [2, 4] | Reactivity profile of serum with respect to the peptide [2, 5] | Reactivity profile of serum with respect to the peptide [2, 6] | Reactivity profile of serum with respect to the peptide [2, 7] | Reactivity profile of serum with respect to the peptide [2, 8] | Reactivity profile of serum with respect to the peptide [2, 9] | Reactivity profile of serum with respect to the peptide [2, 10] | Reactivity profile of serum with respect to the peptide [2, 11] | Reactivity profile of serum with respect to the peptide [2, 12] | Percentage of RA serums positive (reactive in ELISA) for the peptide ([2]; 202 serums from AhFibA-positive RA patients) [%]
GPX1VVEX2HQSACKDS (Ac-GP[Cit]VVE[Cit]HQSACKDS) [Ac-α36-50Cit, N-terminal G acetylated; X1 and X2 citrullyl residues; fibrinogen α-chain 36-50] | most of the plasmas tested were reactive | no correlation was found | [empty] | [empty] | [empty] | + | + | [empty] | +++ | + | +++ | +++ | –
VDIDIKIX1SCX2GSCS (VDIDIKI[Cit]SC[Cit]GSCS; cysteine pairing not given here) [α171-185Cit, X1 and X2 citrullyl residues; fibrinogen α-chain 171-185] | – | significant correlations | + | + | + | ++ | +++ | +++ | [empty] | [empty] | ++ | [empty] | –
X1GHAKSX2PVX3GIHTS ([Cit]GHAKS[Cit]PV[Cit]GIHTS) [α621-635Cit, X1, X2 and X3 citrullyl residues; fibrinogen α-chain 621-635] | – | significant correlations | + | +++ | [empty] | +++ | +++ | ++ | + | +++ | [empty] | [empty] | –
X1PAPPPISGGGYX2AX3 ([Cit]PAPPPISGGGY[Cit]A[Cit]-NH2; N-terminus assumed; SMILES CC[C@H](C)[C@H](NC(=O)[C@@H]1CCCN1C(=O)[C@@H]1CCCN1C(=O)[C@@H]1CCCN1C(=O)[C@H](C)NC(=O)[C@@H]1CCCN1C(=O)[C@@H](N)CCCNC(N)=O)C(=O)N[C@@H](CO)C(=O)NCC(=O)NCC(=O)NCC(=O)N[C@@H](Cc1ccc(O)cc1)C(=O)N[C@@H](CCCNC(N)=O)C(=O)N[C@@H](C)C(=O)N[C@@H](CCCNC(N)=O)C(N)=O) [β60-74Cit-NH2, X1, X2 citrullyl; X3 citrullyl derivative with carboxamide in place of terminal carboxyl; fibrinogen β-chain 60-74] | most of the plasmas tested were reactive | significant correlations | +++ | +++ | +++ | [empty] | +++ | ++ | ++ | [empty] | [empty] | +++ | 76
